Laboratory results from US5648368A, “Fibrinogen receptor antagonists” (Merck & Co., Inc., priority 1995, dated 1997).

Tested on: gel-filtered human platelets
Assay: ADP-stimulated/ADP-mediated platelet aggregation inhibition (Chronolog aggregometer)
Format: cell-based
Conditions: Homo sapiens, Platelet; table 2; "Using the methods previously described"; read-out: IC50 (μM) Inhibition of Platelet Aggregation
Description: Platelet aggregation is measured at 37° C. in a Chronolog aggregometer. The reaction mixture contains gel-filtered human platelets (2×10^8 per ml), fibrinogen (100 micrograms per ml (ug/ml)), Ca^2 + (1 mM), and the compound to be tested. The aggregation is initiated by adding 10 μM ADP 1 minute after the other components are added. The reaction is then allowed to proceed for at least 2 minutes. The extent of inhibition of aggregation is expressed as the percentage of the rate of aggregation observed in the absence of inhibitor. The IC50 is the dose of a particular compound inhibiting aggregation by 50% relative to a control lacking the compound.
In addition to the following preparative procedures, several examples of in-vitro bioactivity of compounds within the scope of the present invention are indicated. To illustrate, one test which is used to evaluate fibrinogen receptor antagonist activity is based on evaluation of inhibition of ADP-stimulated platelets. Aggregation requires that fibrinogen bind to and occupy the platelet fibrinogen receptor site. Inhibitors of fibrinogen binding inhibit aggregation. In the ADP-stimulated platelet aggregation assay used to determine inhibition associated with the compounds claimed in the instant invention, human platelets are isolated from fresh blood, collected into acid citrate/dextrose by differential centrifugation followed by gel filtration on Sepharose 2B in divalent ion-free Tyrode's buffer (pH 7.4) containing 2% bovine serum albumin. [drawing 11]

| IC50 [µM] | Compound |
| --- | --- |
| 0.023 | O=C(NC[C@H](NS(=O)(=O)c1ccccc1)C(=O)O)c1ccc(OCCN2CCNCC2)cc1 |
| 0.02 | CCCCS(=O)(=O)N[C@@H](CNC(=O)c1ccc(C(=O)NCCC2CCNCC2)cc1)C(=O)O |
| 0.056 | O=C(NC[C@H](NS(=O)(=O)c1ccccc1)C(=O)O)c1cccc(OCCCC2CCNCC2)c1 |
| 0.052 | O=C(NCCCC1CCNCC1)c1ccc(C(=O)NC[C@H](NS(=O)(=O)c2cccnc2)C(=O)O)cc1 |
| 0.023 | CCCCS(=O)(=O)N[C@@H](CNC(=O)c1cccc(C(=O)N(C)CCC2CCNCC2)c1)C(=O)O |
| 0.14 | CCCCS(=O)(=O)N[C@@H](CNC(=O)c1ccc(C(=O)NCC2CCNCC2)cc1)C(=O)O |
| 0.11 | CCCCS(=O)(=O)N[C@@H](CNC(=O)c1cncc(C(=O)NCCC2CCNCC2)c1)C(=O)O |
| 0.009 | O=C(NC[C@H](NS(=O)(=O)c1cccnc1)C(=O)O)c1ccc(OCCC2CCNCC2)cc1 |
| 1.6 | O=C(O)CCNC(=O)c1ccnc(C(=O)NCCC2CCNCC2)c1 |
| 0.009 | O=C(NC[C@H](NS(=O)(=O)c1ccccc1)C(=O)O)c1ccc(NCCC2CCNCC2)cc1 |

Further lines, the compound ahead of its results:

| Compound | IC50 [µM] |
| --- | --- |
| O=C(NC[C@H](NS(=O)(=O)c1ccccc1)C(=O)O)c1ccc(OCCCC2CNC2)cc1 | 0.01 |
| O=C(NCCC1CCNCC1)c1ccc(C(=O)NC[C@H](NS(=O)(=O)c2cccnc2)C(=O)O)cc1 | 0.017 |
| O=C(NC[C@H](NS(=O)(=O)c1ccccc1)C(=O)O)c1ccc(S(=O)(=O)CCC2CCNCC2)cc1 | 0.019 |
| O=C(NC[C@H](NS(=O)(=O)c1ccccc1)C(=O)O)c1ccc(OCCC2CNC2)cc1 | 0.017 |
| CCCCS(=O)(=O)N[C@@H](CNC(=O)c1cc(C(=O)NCCC2CCNCC2)ccc1C)C(=O)O | 0.15 |
| O=C(O)CCNC(=O)c1cc(C(=O)NCCC2CCNCC2)ccn1 | 1.1 |
| Cc1ccc(C(=O)NCCC2CCNCC2)cc1C(=O)NCCC(=O)O | 0.45 |

Same assay, conditions: Platelet; gel-filtered human platelets 2×10^8 per ml, fibrinogen 100 ug/ml, Ca2+ 1 mM, 10 μM ADP, 37° C.; table 1; read-out: IC50 for inhibition of ADP-mediated platelet aggregation

| IC50 [µM] | Compound |
| --- | --- |
| 0.1 | CCCCS(=O)(=O)N[C@@H](CNC(=O)CCc1ccc(C2CCNCC2)cc1)C(=O)O [4-(Piperidin-4-yl)phenyl-3-propionyl-[2(S)-n-butyl-sulfonylamino]-β-alanine] |
| 170 | O=C(O)CCNC(=O)CCc1cccc(CC2CCNCC2)c1 [3-[3-(Piperidin-4-ylmethyl)phenyl]propionyl-β-alanine] |
| 56 | O=C(O)CCNC(=O)Cc1cccc(OCC2CCNCC2)c1 [3-[(4-Piperidinyl)methyloxy]-N-(2-carboxyethyl)phenyl Acetamide] |
| 11 | O=C(O)CCNC(=O)CCc1ccc(C2CCNCC2)cc1 [4-(Piperidin-4-yl)phenyl-3-propionyl-β-alanine] |

Further lines, the compound ahead of its results:

| Compound | IC50 [µM] |
| --- | --- |
| O=C(O)CCNC(=O)CCc1ccc(C2=CCNCC2)cc1 [4-(1,2,5,6-Tetrahydropyridin-4-yl)phenyl-3-propionyl-β-alanine] | 1.7 |
| CC(CC(=O)NCCC(=O)O)c1ccc(C2=CCNCC2)cc1 (stereo not drawn) [3-[4-(1,2,5,6-Tetrahydropyridin-4-yl)phenyl]butyryl-β-alanine] | 1.3 |
| CCCCS(=O)(=O)N[C@@H](CNC(=O)CCc1ccc(C2=CCNCC2)cc1)C(=O)O [4-(1,2,5,6-Tetrahydropyridin-4-yl)phenyl-3-propionyl-[2(S)-n-butylsulfonylamino]-β-alanine] | 0.022 |
| O=C(NC[C@H](NS(=O)(=O)c1ccccc1)C(=O)O)c1ccc(OCCC2CCNCC2)cc1 [4-[2-(Piperidin-4-yl)ethoxy]benzoyl-2(S)-phenylsulfonylamino-β-alanine] | 0.014 |

Same assay, conditions: gel-filtered human platelets 2×10^8 per ml, fibrinogen 100 ug/ml, Ca2+ 1 mM, 10 μM ADP, 37° C.; table 1; read-out: IC50 for inhibition of ADP-mediated platelet aggregation

| IC50 [µM] | Compound |
| --- | --- |
| 0.095 | CCCCS(=O)(=O)N[C@@H](Cc1ccc(NC(=O)CCCC2CCNCC2)cc1)C(=O)O [4-(4-Piperidin-4-yl)-N-3[2(S)-n-butylsulfonylaminopropionic acid]-phenylbutyramide] |
| 5.2 | O=C(O)CC(CCc1c[nH]c2ccccc12)NC(=O)Cc1cccc(OCC2CCNCC2)c1 (centres unmarked) [3-[(4-Piperidinyl)methyloxy]-N-[3-(2-indol-3-yl)ethyl Propionic Acid]-phenyl Acetamide] |

Tested on: cell attachment-promoting effects of fibronectin and vitronectin
Assay: not given
Conditions: background statement; cited from earlier work

| Compound | activity of the tripeptide Arg-Gly-Asp |
| --- | --- |
| arginine-glycine-aspartic acid [Arg-Gly-Asp] | low activity |

Tested on: gpIIb/IIIa complex
Assay: not given
Conditions: snake venom polypeptides; literature; cited from earlier work

| Compound | affinity for the gpIIb/IIIa complex |
| --- | --- |
| Echistatin | high affinity |
